Results from ChEMBL document CHEMBL1201862, “PubChem BioAssay data set” (2004).
The source made the active and inactive calls.

Assays:
[1] = miR-122 activators in hepatoma reporter cells, dose response, cell-based, Huh7 psiCHECK-miR122, Renilla luciferase, cherry-picked (AID 651956); type: functional;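 note: huh7 hepatoma cells stably carrying a psiCHECK-2 miR-122 sensor plasmid; renilla luciferase signal reporting endogenous miR-122 activity after 48 h compound exposure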
[2] = HEp-2 cell cytotoxicity, dose response, cytotoxicity control for RSV inhibitor project, HTS (AID 2410); type: functional; details: human respiratory syncytial virus
[3] = target: T1, Probable nicotinate-nucleotide adenylyltransferase (Staphylococcus aureus (strain N315), UniProt P65502); type: functional, Staphylococcus aureus subsp. aureus N315; details: read-out: IC50_Mean;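 for IC50 Mean: confirmatory dose-response retesting of NadD inhibitor hits first found in an ultra-high-throughput screen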
[4] = target: T2, Fatty acid synthase (Homo sapiens, UniProt P49327); assay: FAS thioesterase domain inhibitors, dose response, biochemical, kinetic fluorescence intensity (AID 624326); type: functional;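 note: rate of fluorescence rise from hydrolysis of a fluorogenic O-methyl fluorescein ester substrate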
[5] = target: T2, Fatty acid synthase; assay: FAS thioesterase domain inhibitors, dose response, biochemical, endpoint fluorescence intensity, uHTS hits (AID 624327); type: functional;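 note: fluorescence from hydrolysis of an O-methyl fluorescein acyl ester substrate by the enzyme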
[6] = target: T1, Probable nicotinate-nucleotide adenylyltransferase; type: functional, Staphylococcus aureus subsp. aureus N315
[7] = target: T3, Nuclear receptor subfamily 0 group B member 1 (Homo sapiens, UniProt P51843); assay: Luminescence-based cell-based high throughput dose response assay for inhibitors of the orphan nuclear receptor subfamily 0, group B, member 1 (DAX1; NR0B1). [Related pubchem assays (depositor defined):AID504766, AID504790]; type: functional
T3 sequence (P51843 whole entry): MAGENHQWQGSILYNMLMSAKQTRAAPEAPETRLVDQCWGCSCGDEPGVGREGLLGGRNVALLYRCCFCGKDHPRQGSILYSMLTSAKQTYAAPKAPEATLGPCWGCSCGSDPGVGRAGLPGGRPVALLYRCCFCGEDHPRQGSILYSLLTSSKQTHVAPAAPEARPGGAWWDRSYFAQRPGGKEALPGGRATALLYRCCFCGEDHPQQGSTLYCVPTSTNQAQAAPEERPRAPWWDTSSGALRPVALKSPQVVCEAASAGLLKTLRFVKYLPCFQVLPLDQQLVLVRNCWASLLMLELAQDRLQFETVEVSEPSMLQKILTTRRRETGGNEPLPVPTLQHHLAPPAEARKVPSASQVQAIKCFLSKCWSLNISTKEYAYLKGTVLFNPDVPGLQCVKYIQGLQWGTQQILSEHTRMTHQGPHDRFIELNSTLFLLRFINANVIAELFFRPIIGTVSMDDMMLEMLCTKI

[8] = system: HEK293; assay: cells; type: functional, cell-based; details: Homo sapiens
[9] = system: H9c2; assay: cells; type: functional, cell-based; details: Rattus norvegicus, H9c2, Myocardium;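 note: confirmatory concentration-response retest of ultra-high-throughput screening hits for modulation of myocardial damage; cell death induced by hydrogen peroxide oxidative stress; compound pretreatment for 60 min then peroxide exposure for 2 h; potency is for protecting the cells against peroxide damage rather than for killing them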
[10] = target: T4, Polyadenylate-binding protein 1 (Homo sapiens, UniProt P11940); assay: PABP1 MLLE–PAM2 binding inhibitor potency, dose response, biochemical, fluorescence polarization, FITC-PAM2 peptide (AID 602259); type: functional; details: read-out: IC50_Mean
[11] = target: Ras and Rab interactor 1/Tyrosine-protein kinase ABL1 (Homo sapiens, UniProt P00519+Q13671); type: functional;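 note: biochemical TR-FRET dose-response test measuring inhibition of binding between Rin1 and Abl proteins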
[12] = target: T4, Polyadenylate-binding protein 1; assay: PABP1 MLLE–PAM2 interaction inhibitors, dose response, miRNA deadenylation inhibitor project, biochemical, fluorescence polarization, Cy5-PAM2 peptide, secondary (AID 602260); type: functional; details: read-out: IC50_Mean
[13] = cytotoxicity toward DRD oncogenic fibroblasts, dose response, cell-based, non-viral oncogenic, luminescence (AID 1934); type: functional; details: Homo sapiens
[14] = system: BJ; assay: cytotoxicity toward Ras-transformed BJeLR fibroblasts, dose response, cell-based, alamar blue fluorescence, cherrypicked samples (AID 2631); type: functional; details: Homo sapiens;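 note: confirmatory dose-response assay in RAS-dependent BJ fibroblasts engineered with TERT, LT and ST, with cytotoxicity read by fluorescence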
[15] = system: BJ; assay: cytotoxicity toward BJ-TERT-LT-ST fibroblasts, dose response, cell-based, RAS-independent, luminescence (AID 1935); type: functional; details: Homo sapiens;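 note: BJ fibroblasts immortalized with TERT plus LT and ST oncogenes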
[16] = system: BJ; assay: cytotoxicity toward BJ-TERT fibroblasts, dose response, cell-based, RAS-independent, luminescence (AID 1933); type: functional; details: Homo sapiens
[17] = system: BJ; assay: cells; type: functional, cell-based; details: Homo sapiens
[18] = target: T5, Low molecular weight phosphotyrosine protein phosphatase (Homo sapiens, UniProt P24666); type: functional; details: read-out: IC50_Mean
T5 sequence (P24666 whole entry): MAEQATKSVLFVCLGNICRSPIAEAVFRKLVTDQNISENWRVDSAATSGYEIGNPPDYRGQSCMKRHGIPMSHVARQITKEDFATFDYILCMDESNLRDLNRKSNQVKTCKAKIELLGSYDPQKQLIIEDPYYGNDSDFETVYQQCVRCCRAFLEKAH

[19] = target: T5, Low molecular weight phosphotyrosine protein phosphatase; type: functional; details: read-out: IC50_Mean; remark: listed apart in the source
[20] = target: Vascular endothelial growth factor receptor 2 (Homo sapiens, UniProt P35968); type: functional
[21] = target: Aurora kinase B (Homo sapiens, UniProt Q96GD4); type: functional
[22] = target: T6, Aurora kinase A (Homo sapiens, UniProt O14965); type: functional;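 note: value from the Navigating the Kinome kinase panel profiling, panel entry STK6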
T6 sequence (O14965 whole entry): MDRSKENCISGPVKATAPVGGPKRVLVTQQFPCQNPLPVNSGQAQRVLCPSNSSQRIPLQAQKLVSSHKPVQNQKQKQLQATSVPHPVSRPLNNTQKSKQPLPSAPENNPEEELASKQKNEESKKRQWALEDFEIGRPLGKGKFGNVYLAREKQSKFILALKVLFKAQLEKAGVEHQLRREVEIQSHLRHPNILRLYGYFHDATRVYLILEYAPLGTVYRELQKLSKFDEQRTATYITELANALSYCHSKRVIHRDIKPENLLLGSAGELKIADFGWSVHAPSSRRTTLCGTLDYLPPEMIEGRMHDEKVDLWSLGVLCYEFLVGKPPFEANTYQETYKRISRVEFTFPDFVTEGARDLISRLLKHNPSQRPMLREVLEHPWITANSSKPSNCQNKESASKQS

[23] = target: Protein disulfide-isomerase (Homo sapiens, UniProt P07237); assay: PDI inhibitors, insulin turbidity readout, confirmation, biochemical, dry powder samples, set 2 (AID 652146)
[24] = target: T3, Nuclear receptor subfamily 0 group B member 1; type: functional, cell-based
[25] = cells; type: functional, cell-based
[26] = human group III sPLA2 inhibitors, dose response, biochemical, QFRET, IC50 (AID 743457);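 note: green fluorescence rise as the enzyme cleaves BODIPY PC-A2 in liposomes; potency for inhibition of the enzyme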
[27] = CEM21 lymphoblast cell cytotoxicity, dose response, cytotoxicity control for viral fusion inhibitor project, CellTiter-Glo luminescence, cherry-picked (AID 652042); type: functional, cell-based;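 note: potency for signal decrease meaning cytotoxicity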
[28] = inhibitors of clade B AD8 Env fusion, dose response, cell-based, cherry-pick (AID 652062); type: functional;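 note: luciferase signal from cell-cell fusion driven by HIV-1 clade B AD8 Env; potency is for inhibitors of fusion seen as a drop in luminescence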
[29] = inhibitors of HIV Env-driven cell fusion, dose response, cherry-pick (AID 652057); type: functional, cell-based
[30] = target: T7, Protein skinhead-1 (Caenorhabditis elegans, UniProt P34707); type: functional
T7 sequence (P34707 whole entry): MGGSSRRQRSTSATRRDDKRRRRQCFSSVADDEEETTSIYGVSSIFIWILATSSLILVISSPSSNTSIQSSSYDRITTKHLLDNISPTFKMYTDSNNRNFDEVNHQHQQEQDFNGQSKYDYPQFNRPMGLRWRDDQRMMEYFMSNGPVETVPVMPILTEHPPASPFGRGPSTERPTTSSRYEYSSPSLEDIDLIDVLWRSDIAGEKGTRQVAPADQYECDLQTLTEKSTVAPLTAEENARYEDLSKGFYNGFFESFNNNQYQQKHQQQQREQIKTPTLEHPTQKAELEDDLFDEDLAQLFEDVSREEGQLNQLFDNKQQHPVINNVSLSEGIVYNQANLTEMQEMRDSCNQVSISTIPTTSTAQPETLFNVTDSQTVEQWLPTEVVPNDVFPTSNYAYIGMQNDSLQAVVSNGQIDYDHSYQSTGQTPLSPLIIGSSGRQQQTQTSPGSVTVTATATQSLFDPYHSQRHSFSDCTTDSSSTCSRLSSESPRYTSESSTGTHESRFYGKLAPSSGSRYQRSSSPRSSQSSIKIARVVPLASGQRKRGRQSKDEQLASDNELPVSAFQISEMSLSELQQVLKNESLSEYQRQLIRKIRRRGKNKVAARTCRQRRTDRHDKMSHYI

[31] = target: DNA (cytosine-5)-methyltransferase 1 (Homo sapiens, UniProt P26358); assay: DNMT1 methyltransferase inhibitors, confirmation, biochemical, fluorescent molecular beacon (AID 602386); type: functional
[32] = target: Genome polyprotein (dengue virus type 2, UniProt P29990); assay: Dengue-2 NS5 methyltransferase inhibitors, primary screen, biochemical, confirmation dose response (AID 588689); type: functional
[33] = THP-1 cell cytotoxicity, dose response, cytotoxicity control for Vif-APOBEC3G degradation inhibitor project, THP-1 cells (AID 1117359); type: functional; details: Human immunodeficiency virus 1, THP-1
[34] = off-target signal loss in HeLa-CEM21 co-culture – HeLa F-luc CTL cells, cherry-picked, counter-screen for HIV-1 Env fusion inhibitor project, dose response (AID 652040); type: functional, cell-based;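 note: potency for signal decrease marking cytotoxic or nonspecific inhibition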
[35] = ZM109 Env clade C HIV-1 fusion inhibitors, dose response, HeLa effector, CEM target cells, luciferase, cherry-pick (AID 652058); type: functional, cell-based
[36] = target: Dual specificity protein phosphatase 3 (Homo sapiens, UniProt P51452); assay: VHR phosphatase inhibition, dose response, selectivity assay for STEP inhibitor project, biochemical (AID 602374); type: functional; details: read-out: IC50_Mean
[37] = target: Tyrosine-protein phosphatase non-receptor type 11 (Homo sapiens, UniProt Q06124); assay: SHP2 phosphatase inhibition, dose response, selectivity assay for STEP inhibitor project, biochemical (AID 602367); type: functional; details: read-out: IC50_Mean
[38] = target: Tyrosine-protein phosphatase non-receptor type 5 (Homo sapiens, UniProt P54829); assay: STEP phosphatase inhibitors, confirmation, biochemical, fluorescence intensity, uHTS hits (AID 602372); type: functional; details: read-out: IC50_Mean
Sequence of Tyrosine-protein phosphatase non-receptor type 5 (P54829 whole entry): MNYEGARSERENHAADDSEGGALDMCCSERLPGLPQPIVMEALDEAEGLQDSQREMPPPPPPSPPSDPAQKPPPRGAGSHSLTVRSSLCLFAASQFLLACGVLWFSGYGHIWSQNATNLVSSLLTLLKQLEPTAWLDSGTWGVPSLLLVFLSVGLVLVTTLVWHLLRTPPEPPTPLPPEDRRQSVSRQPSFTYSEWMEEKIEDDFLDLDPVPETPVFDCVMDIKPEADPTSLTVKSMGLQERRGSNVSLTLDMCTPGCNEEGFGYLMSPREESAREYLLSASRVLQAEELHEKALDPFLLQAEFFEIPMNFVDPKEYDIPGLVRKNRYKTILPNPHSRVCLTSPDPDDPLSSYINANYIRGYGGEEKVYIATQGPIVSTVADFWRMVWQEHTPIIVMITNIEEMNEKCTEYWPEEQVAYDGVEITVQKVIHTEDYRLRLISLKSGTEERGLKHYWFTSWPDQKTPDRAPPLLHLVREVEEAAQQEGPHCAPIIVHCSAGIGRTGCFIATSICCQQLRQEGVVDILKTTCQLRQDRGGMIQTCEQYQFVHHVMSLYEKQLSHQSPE

T2 sequence (P49327 whole entry, the tested form may be a part): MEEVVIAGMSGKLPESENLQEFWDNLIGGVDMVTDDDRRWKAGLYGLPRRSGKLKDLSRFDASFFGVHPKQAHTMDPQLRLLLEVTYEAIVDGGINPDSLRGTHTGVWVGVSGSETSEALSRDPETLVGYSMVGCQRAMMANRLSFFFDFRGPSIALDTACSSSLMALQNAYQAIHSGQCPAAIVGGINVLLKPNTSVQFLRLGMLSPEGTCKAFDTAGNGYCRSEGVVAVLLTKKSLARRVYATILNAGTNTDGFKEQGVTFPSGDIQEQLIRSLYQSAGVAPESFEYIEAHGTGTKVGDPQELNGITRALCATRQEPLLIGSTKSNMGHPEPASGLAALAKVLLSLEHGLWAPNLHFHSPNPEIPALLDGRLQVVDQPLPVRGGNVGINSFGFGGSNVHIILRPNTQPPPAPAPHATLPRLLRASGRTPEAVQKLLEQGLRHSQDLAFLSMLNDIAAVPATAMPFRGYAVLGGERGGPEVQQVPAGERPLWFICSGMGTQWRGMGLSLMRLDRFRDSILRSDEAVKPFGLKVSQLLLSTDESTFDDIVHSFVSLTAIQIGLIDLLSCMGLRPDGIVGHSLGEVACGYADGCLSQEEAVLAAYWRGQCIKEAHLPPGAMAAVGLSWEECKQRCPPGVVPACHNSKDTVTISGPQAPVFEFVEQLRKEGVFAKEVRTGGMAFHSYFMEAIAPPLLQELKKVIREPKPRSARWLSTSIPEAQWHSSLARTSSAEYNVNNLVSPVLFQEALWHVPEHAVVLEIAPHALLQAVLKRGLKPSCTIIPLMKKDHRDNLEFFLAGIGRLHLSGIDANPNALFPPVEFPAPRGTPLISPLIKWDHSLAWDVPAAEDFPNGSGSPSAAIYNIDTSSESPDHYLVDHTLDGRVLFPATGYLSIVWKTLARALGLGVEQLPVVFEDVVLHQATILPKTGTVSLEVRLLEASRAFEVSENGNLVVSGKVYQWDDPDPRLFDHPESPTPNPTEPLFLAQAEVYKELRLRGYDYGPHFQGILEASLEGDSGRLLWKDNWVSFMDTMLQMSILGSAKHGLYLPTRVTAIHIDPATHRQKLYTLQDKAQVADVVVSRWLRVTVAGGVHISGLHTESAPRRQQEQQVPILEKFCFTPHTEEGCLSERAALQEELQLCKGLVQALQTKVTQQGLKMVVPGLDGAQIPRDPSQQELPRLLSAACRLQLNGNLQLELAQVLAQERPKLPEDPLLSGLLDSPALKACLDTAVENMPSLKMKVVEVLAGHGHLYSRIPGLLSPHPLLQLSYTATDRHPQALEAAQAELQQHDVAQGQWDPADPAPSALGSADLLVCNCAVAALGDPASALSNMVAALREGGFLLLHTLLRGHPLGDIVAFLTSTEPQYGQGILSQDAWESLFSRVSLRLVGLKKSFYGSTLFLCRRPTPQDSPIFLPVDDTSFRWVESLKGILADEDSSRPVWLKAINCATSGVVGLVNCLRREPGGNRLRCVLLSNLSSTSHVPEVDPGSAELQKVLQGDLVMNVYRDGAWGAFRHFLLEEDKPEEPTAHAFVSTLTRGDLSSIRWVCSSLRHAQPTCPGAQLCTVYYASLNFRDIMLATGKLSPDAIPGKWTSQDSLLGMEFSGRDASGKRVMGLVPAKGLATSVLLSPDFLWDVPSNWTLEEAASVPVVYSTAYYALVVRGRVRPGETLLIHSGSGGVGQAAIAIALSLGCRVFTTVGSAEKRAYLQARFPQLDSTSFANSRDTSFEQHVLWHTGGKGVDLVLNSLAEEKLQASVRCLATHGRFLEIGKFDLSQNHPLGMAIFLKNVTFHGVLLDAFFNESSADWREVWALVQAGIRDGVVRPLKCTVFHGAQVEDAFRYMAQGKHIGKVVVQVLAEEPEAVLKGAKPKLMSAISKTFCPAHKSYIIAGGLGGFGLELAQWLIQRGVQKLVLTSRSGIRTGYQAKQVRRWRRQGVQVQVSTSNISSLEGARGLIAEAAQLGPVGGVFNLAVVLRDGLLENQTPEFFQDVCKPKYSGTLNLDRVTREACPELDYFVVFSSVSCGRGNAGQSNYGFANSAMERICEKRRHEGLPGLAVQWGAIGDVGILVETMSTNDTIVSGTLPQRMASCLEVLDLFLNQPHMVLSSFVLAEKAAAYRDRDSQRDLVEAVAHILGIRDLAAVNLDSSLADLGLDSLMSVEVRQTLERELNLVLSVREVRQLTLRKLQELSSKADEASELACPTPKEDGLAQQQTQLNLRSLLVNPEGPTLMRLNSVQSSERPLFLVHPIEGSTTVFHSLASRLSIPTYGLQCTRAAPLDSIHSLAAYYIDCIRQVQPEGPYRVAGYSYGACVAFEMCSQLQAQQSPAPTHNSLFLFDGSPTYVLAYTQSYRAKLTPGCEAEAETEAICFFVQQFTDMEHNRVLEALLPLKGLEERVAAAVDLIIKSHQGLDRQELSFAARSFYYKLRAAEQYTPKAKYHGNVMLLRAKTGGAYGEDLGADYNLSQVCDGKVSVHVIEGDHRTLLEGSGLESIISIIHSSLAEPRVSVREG
T1 sequence (P65502 whole entry, the tested form may be a part): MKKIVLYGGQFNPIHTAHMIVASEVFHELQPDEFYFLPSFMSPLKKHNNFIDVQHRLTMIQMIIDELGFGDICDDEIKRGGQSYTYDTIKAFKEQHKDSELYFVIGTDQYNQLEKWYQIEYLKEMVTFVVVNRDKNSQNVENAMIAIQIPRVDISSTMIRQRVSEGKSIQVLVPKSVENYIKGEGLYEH
T4 sequence (P11940 whole entry): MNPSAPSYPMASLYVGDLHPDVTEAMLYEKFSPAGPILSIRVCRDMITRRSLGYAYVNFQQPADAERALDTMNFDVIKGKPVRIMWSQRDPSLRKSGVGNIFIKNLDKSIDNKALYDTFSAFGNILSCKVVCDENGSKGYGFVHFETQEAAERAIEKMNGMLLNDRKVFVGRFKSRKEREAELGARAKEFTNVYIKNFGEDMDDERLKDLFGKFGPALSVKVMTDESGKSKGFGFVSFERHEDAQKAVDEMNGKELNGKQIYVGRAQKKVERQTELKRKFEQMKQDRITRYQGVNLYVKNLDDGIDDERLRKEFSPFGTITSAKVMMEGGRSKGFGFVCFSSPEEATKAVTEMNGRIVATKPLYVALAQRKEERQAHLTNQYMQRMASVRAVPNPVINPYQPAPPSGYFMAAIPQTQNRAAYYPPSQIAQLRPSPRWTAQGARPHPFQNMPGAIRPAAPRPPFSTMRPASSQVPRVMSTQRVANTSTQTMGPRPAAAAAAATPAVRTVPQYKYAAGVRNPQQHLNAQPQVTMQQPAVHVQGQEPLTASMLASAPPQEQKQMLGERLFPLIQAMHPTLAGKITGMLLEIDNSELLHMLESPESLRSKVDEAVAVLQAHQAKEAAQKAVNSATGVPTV
Sequence of Tyrosine-protein phosphatase non-receptor type 11 (Q06124 whole entry): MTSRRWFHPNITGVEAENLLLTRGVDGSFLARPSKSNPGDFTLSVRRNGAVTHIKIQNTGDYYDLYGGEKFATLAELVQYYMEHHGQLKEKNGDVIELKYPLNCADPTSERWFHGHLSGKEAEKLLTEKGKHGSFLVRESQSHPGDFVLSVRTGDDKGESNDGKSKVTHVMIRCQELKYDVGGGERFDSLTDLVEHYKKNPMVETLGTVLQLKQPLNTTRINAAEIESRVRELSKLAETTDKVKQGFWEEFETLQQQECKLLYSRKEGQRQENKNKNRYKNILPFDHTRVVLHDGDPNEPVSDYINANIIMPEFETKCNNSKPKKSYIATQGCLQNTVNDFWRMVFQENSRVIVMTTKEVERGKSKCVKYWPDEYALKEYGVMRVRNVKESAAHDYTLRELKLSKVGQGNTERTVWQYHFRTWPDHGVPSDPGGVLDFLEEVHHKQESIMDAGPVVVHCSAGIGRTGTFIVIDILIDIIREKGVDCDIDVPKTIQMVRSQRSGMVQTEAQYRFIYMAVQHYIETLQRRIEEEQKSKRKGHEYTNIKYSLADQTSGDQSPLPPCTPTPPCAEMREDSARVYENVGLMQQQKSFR
Sequence of Dual specificity protein phosphatase 3 (P51452 whole entry): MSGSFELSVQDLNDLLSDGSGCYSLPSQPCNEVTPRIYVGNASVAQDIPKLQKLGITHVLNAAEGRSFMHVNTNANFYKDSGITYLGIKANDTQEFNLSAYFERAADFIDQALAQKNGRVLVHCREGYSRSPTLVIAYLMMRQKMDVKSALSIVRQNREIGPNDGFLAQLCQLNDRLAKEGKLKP
Sequence of Aurora kinase B (Q96GD4 whole entry): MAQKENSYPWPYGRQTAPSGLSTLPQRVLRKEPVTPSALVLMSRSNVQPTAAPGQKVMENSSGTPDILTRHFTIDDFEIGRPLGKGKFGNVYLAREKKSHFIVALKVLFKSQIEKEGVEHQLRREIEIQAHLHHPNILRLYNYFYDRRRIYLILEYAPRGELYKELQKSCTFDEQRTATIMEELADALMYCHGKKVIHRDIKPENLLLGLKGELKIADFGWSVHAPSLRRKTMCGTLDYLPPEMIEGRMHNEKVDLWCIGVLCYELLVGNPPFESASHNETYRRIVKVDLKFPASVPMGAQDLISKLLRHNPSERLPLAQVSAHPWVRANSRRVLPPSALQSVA

CCNC(=O)C[C@@H]1CC[C@@H]2[C@@H](COc3ccc(NC(=O)C4CCCCC4)cc3C(=O)N2C)O1
AC50 [1]: 33.4 µM (active)

O=[N+]([O-])c1ccc(Cl)c(S(=O)(=O)Nc2cccc(-c3ccc(N4CCCC4)nn3)c2)c1
CC50 [2]: 14.7 µM (active) | IC50 [3]: 23.5 µM (active) | IC50 [4]: 7.65 µM (active) | IC50 [5]: 8.75 µM (active) | IC50 [6]: 6.57 µM (active)

Cc1[nH]c2ccccc2c1/C=N/NC(=O)c1cccs1
IC50 [7]: > 67.6 µM (inactive) | IC50 [8]: > 67.6 µM (inactive) | IC50 [9]: > 79 µM (inactive)

CCOC(=O)CCCCC(=O)c1[nH]c(O)nc1CSc1nc(O)c(C#N)c(-c2ccccc2)n1
IC50 [10]: > 66 µM (inactive) | IC50 [11]: 1.45 µM (active) | IC50 [12]: > 66 µM (inactive)

Cc1c(C(=O)OCC(=O)N2CC(=O)Nc3ccccc32)oc2ccc(Br)cc12
EC50 [13]: 15.6 µM (active) | EC50 [14]: > 133 µM (inactive) | EC50 [15]: > 150 µM (inconclusive) | EC50 [16]: 10.1 µM (active) | EC50 [17]: 35.9 µM (active)

CN1C/C(=C/c2ccncc2)C(=O)/C(=C/c2ccncc2)C1
EC50 [13]: 7.52 µM (active) | EC50 [14]: 0.455 µM (active) | EC50 [15]: 5.85 µM (inconclusive) | EC50 [16]: 3.82 µM (active) | EC50 [17]: 3.65 µM (inconclusive)

O=C1NC(=O)N(CCc2ccc(F)cc2)C(=O)/C1=C\NCc1ccc2c(c1)OCO2
IC50 [18]: > 80 µM (inactive) | IC50 [19]: 3.2 µM (active)

O=C1Nc2ccccc2Nc2cc(-c3ccccc3O)ccc21
Ki [20]: 0.0794 µM (active) | Ki [21]: > 2.51 µM (inactive) | Ki [22]: > 2 µM (inactive)

CCOC(=O)C1(CCOC)CCCN(Cc2ccc(Cl)cc2)C1 (stereo not given)
AC50 [23]: > 30 µM (inactive)

COc1ccc(C(=O)N[C@H](C(=O)NCCCSc2ccccc2)C(C)C)cc1
IC50 [7]: > 67.5 µM (inactive) | IC50 [8]: > 67.5 µM (inactive)

COC(=O)C1CCC(=O)N1C(c1ccc(OC)cc1)c1cc(OC)c(OC)c(OC)c1 (stereo not given)
IC50 [24]: > 67.5 µM (inactive) | IC50 [25]: > 67.5 µM (inactive)

O=C(NN=C(S)NCc1ccccc1)c1ccccc1OC(F)F
IC50 [26]: > 122 µM (inactive)

CCOC(=O)CCCCC(=O)c1[nH]c(O)nc1Cn1cnc2ccccc21
IC50 [11]: 1.86 µM (active)

C[C@H](CO)N1C[C@H](C)[C@H](CN(C)S(=O)(=O)c2ccccc2)Oc2ccc(NC(=O)Nc3ccc4c(c3)OCO4)cc2CC1=O
AC50 [27]: 58.4 µM (active) | AC50 [28]: 1.15 µM (active) | AC50 [29]: < 0.26 µM (active)

O=C1C=C(N2CC2)c2ccccc2C1=O
IC50 [30]: > 100 µM (inactive) | IC50 [31]: 1.87 µM (active) | IC50 [32]: 29.7 µM (active) | CC50 [33]: 32.7 µM (active)

CCOC(=O)Cn1nnnc1CN(CCc1ccccc1)Cc1cc2cc(CC)ccc2nc1O
AC50 [27]: 54.2 µM (active) | AC50 [34]: 6.05 µM (active) | AC50 [28]: 29.3 µM (active) | AC50 [29]: 2.97 µM (active) | AC50 [35]: 1.17 µM (active)

COc1cccc(-c2cc(C(=O)Nc3nc4ccccc4s3)c3ccccc3n2)c1
IC50 [30]: > 100 µM (inactive) | IC50 [36]: 1.62 µM (active) | IC50 [37]: 8.43 µM (active) | IC50 [38]: 23.2 µM (inactive)
